Laboratory results as given in US20210078988A1, “MODULATORS OF INDOLEAMINE 2,3-DIOXYGENASE” (GLAXOSMITHKLINE INTELLECTUAL PROPERTY DEVELOPMENT LIMITED, priority 2017, published 2021).

molecular target: T1, indoleamine 2, 3-dioxygenase (IDO1) (Homo sapiens, UniProt P14902); test: PBMC IDO1 assay (kynurenine detection via mass spectrometry); format: cell-based; details: human PBMC stimulated with IFN-γ and LPS, 2 days, kynurenine by mass spectrometry; read-out: IDO1 PBMC pIC50 (converted)
T1 construct: human peripheral blood mononuclear cells (PBMC) (PB003F; host or cells: human PBMC stimulated with IFN-gamma and LPS
Description: Compounds of the present invention were tested via high-throughput cellular assays utilizing detection of kynurenine via mass spectrometry and cytotoxicity as end-points. For the mass spectrometry and cytotoxicity assays, human peripheral blood mononuclear cells (PBMC) (PB003F; AIICells®, Alameda, Calif.) were stimulated with human interferon-γ (IFN-γ) (Sigma-Aldrich Corporation, St. Louis, Mo.) and lipopolysaccharide from Salmonella minnesota (LPS) (Invivogen, San Diego, Calif.) to induce the expression of indoleamine 2, 3-dioxygenase (IDO1). Compounds with IDO1 inhibitory properties decreased the amount of kynurenine produced by the cells via the tryptophan catabolic pathway. Cellular toxicity due to the effect of compound treatment was measured using CellTiter-Glo® reagent (CTG) (Promega Corporation, Madison, Wis.), which is based on luminescent detection of ATP, an indicator of metabolically active cells.
In preparation for the assays, test compounds were serially diluted 3-fold in DMSO from a typical top concentration of 5 mM and plated at 0.5 μL in 384-well, polystyrene, clear bottom, tissue culture treated plates with lids (Greiner Bio-One, Kremsmunster, Austria) to generate 11-point dose response curves. Low control wells (0% kynurenine or 100% cytotoxicity) contained either 0.5 μL of DMSO in the presence of unstimulated (-IFN-γ/-LPS) PBMCs for the mass spectrometry assay or 0.5 μL of DMSO in the absence of cells for the cytotoxicity assay, and high control wells (100% kynurenine or 0% cytotoxicity) contained 0.5 μL of DMSO in the presence of stimulated (+IFN-γ/+LPS) PBMCs for both the mass spectrometry and cytotoxicity assays.
Frozen stocks of PBMCs were washed and recovered in RPMI 1640 medium (Thermo Fisher Scientific, Inc., Waltham, Mass.) supplemented with 10% v/v heat-inactivated fetal bovine serum (FBS) (Thermo Fisher Scientific, Inc., Waltham, Mass.), and 1× penicillin-streptomycin antibiotic solution (Thermo Fisher Scientific, Inc., Waltham, Mass.). The cells were diluted to 1,000,000 cells/mL in the supplemented RPMI 1640 medium. 50 μL of either the cell suspension, for the mass spectrometry assay, or medium alone, for the cytotoxicity assay, were added to the low control wells, on the previously prepared 384-well compound plates, resulting in 50,000 cells/well or 0 cells/well respectively. IFN-γ and LPS were added to the remaining cell suspension at final concentrations of 100 ng/ml and 50 ng/ml respectively, and 50 μL of the stimulated cells were added to all remaining wells on the 384-well compound plates. The plates, with lids, were then placed in a 37° C., 5% CO2 humidified incubator for 2 days.
Following incubation, the 384-well plates were removed from the incubator and allowed to equilibrate to room temperature for 30 minutes. For the cytotoxicity assay, CellTiter-Glo® was prepared according to the manufacturer's instructions, and 40 μL were added to each plate well. After a twenty minute incubation at room temperature, luminescence was read on an EnVision® Multilabel Reader (PerkinElmer Inc., Waltham, Mass.). For the mass spectrometry assay, 10 μL of supernatant from each well of the compound-treated plates were added to 40 μL of acetonitrile, containing 10 μM of an internal standard for normalization, in 384-well, polypropylene, V-bottom plates (Greiner Bio-One, Kremsmunster, Austria) to extract the organic analytes. Following centrifugation at 2000 rpm for 10 minutes, 10 μL from each well of the acetonitrile extraction plates were added to 90 μL of sterile, distilled H2O in 384-well, polypropylene, V-bottom plates for analysis of kynurenine and the internal standard on the RapidFire 300 (Agilent Technologies, Santa Clara, Calif.) and 4000 QTRAP MS (SCIEX, Framingham, Mass.). MS data were integrated using Agilent Technologies' RapidFire Integrator software, and data were normalized for analysis as a ratio of kynurenine to the internal standard. […]

T1 sequence (P14902 whole entry): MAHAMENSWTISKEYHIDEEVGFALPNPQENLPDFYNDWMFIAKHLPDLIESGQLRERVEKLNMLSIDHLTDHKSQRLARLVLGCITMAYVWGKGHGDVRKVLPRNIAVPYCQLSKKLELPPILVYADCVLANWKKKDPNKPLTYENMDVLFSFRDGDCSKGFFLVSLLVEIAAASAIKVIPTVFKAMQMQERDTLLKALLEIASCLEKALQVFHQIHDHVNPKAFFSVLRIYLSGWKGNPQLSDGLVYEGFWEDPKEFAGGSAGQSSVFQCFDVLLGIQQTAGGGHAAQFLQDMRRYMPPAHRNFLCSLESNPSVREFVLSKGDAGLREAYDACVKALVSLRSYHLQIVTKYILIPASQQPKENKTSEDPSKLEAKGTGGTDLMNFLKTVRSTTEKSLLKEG

SMILES | IC50 [nM]
CCc1ccc(C(=O)NC(CC2CCN(C(=O)OC(C)(C)C)CC2)c2ccccc2)s1 (stereo not shown) [Example 1, tert-butyl 4-(2-(5-ethylthiophene-2-carboxamido)-2-phenylethyl)piperidine-1-carboxylate] | 7.94
CC(C)(C)OC(=O)N1CCC(CC(NC(=O)c2ccc(Br)s2)c2ccccc2)CC1 (stereo not shown) [Example 2, tert-butyl 4-(2-(5-bromothiophene-2-carboxamido)-2-phenylethyl)piperidine-1-carboxylate] | 7.94
CC(C)(C)OC(=O)N1CCC(CC(NC(=O)c2ccc(Cl)s2)c2ccccc2)CC1 (stereo not shown) [Example 3, tert-butyl 4-(2-(5-chlorothiophene-2-carboxamido)-2-phenylethyl)piperidine-1-carboxylate] | 10
C#Cc1ccc(C(=O)NC(CC2CCN(C(=O)OC(C)(C)C)CC2)c2ccccc2)s1 (stereo not shown) [Example 4, tert-butyl 4-(2-(5-ethynylthiophene-2-carboxamido)-2-phenylethyl)piperidine-1-carboxylate] | 3.98
C#Cc1ccc(C(=O)NC(CC2CCN(C(=O)OC(C)(C)C)CC2)c2ccccc2)cc1 (stereo not shown) [Example 5, tert-butyl 4-(2-(4-ethynylbenzamido)-2-phenylethyl)piperidine-1-carboxylate] | 7.94
C#Cc1ccc(C(=O)NC(CC2CCN(C(=O)OC(C)(C)C)CC2)c2ccccc2)cc1F (stereo not shown) [Example 6, tert-butyl 4-(2-(4-ethynyl-3-fluorobenzamido)-2-phenylethyl)piperidine-1-carboxylate] | 10
CCOC(=O)N1CCC(CC(NC(=O)c2ccc(Cl)s2)C2CC2)CC1 (stereo not shown) [Example 7, ethyl 4-(2-(5-chlorothiophene-2-carboxamido)-2-cyclopropylethyl)piperidine-1-carboxylate] | 6.31
CC(C)(C)OC(=O)N1CCC(C[C@H](NC(=O)c2ccc(Cl)s2)C2CC2)CC1 [Example 8, (S)-tert-butyl 4-(2-(5-chlorothiophene-2-carboxamido)-2-cyclopropylethyl)piperidine-1-carboxylate] | 6.31
Cc1ccc(C(=O)N[C@@H](CC2CCN(C(=O)OC(C)(C)C)CC2)C2CC2)s1 [Example 9, (S)-tert-butyl 4-(2-cyclopropyl-2-(5-methylthiophene-2-carboxamido)ethyl)piperidine-1-carboxylate] | 5.01
CCc1ccc(C(=O)N[C@@H](CC2CCN(C(=O)OC(C)(C)C)CC2)C2CC2)s1 [Example 10, (S)-tert-butyl 4-(2-cyclopropyl-2-(5-ethylthiophene-2-carboxamido)ethyl)piperidine-1-carboxylate] | 5.01
CCOC(=O)N1CCC(C[C@H](NC(=O)c2ccc(C)s2)C2CC2)CC1 [Example 11, (S)-ethyl 4-(2-cyclopropyl-2-(5-methylthiophene-2-carboxamido)ethyl)piperidine-1-carboxylate] | 5.01
CCOC(=O)N1CCC(C[C@H](NC(=O)c2ccc(Cl)s2)C2CC2)CC1 [Example 12, ethyl (S)-4-(2-(5-chlorothiophene-2-carboxamido)-2-cyclopropylethyl)piperidine-1-carboxylate] | 3.16
COC(=O)N1CCC(C[C@H](NC(=O)c2ccc(Cl)s2)C2CC2)CC1 [Example 13, (S)-methyl 4-(2-(5-chlorothiophene-2-carboxamido)-2-cyclopropylethyl)piperidine-1-carboxylate] | 7.94
CC(C)OC(=O)N1CCC(C[C@H](NC(=O)c2ccc(Cl)s2)C2CC2)CC1 [Example 14, isopropyl (S)-4-(2-(5-chlorothiophene-2-carboxamido)-2-cyclopropylethyl)piperidine-1-carboxylate] | 3.98
CC(C)CC(CC1CCN(C(=O)OC(C)(C)C)CC1)NC(=O)c1ccc(Cl)s1 (stereo not shown) [Example 18, tert-butyl 4-(2-(5-chlorothiophene-2-carboxamido)-4-methylpentyl)piperidine-1-carboxylate] | 6.31
COc1ccc([C@H](CC2CCN(C(=O)OC(C)C)CC2)NC(=O)c2ccc(Cl)cc2)cn1 [Example 22, isopropyl (S)-4-(2-(4-chlorobenzamido)-2-(6-methoxypyridin-3-yl)ethyl)piperidine-1-carboxylate] | 2
Cc1ccc(C(=O)NC(CC(C)C)CC2CCN(C(=O)OC(C)(C)C)CC2)s1 (stereo not shown) [Example 26, tert-butyl 4-(4-methyl-2-(5-methylthiophene-2-carboxamido)pentyl)piperidine-1-carboxylate] | 7.94
CC(C)CC(CC1CCN(C(=O)OC(C)(C)C)CC1)NC(=O)c1ccc(Br)cc1 (stereo not shown) [Example 27, tert-butyl 4-(2-(4-bromobenzamido)-4-methylpentyl)piperidine-1-carboxylate] | 10
CC(C)CC(CC1CCN(C(=O)OC(C)(C)C)CC1)NC(=O)c1ccc(Br)s1 (stereo not shown) [Example 28, tert-butyl 4-(2-(5-bromothiophene-2-carboxamido)-4-methylpentyl)piperidine-1-carboxylate] | 7.94

Other lines, results leading:

IC50 [nM] | SMILES
3.98 | COc1ccc(C(CC2CCN(C(=O)OC(C)(C)C)CC2)NC(=O)c2ccc(Cl)s2)cn1 (stereo not shown) [Example 15, tert-butyl 4-(2-(5-chlorothiophene-2-carboxamido)-2-(6-methoxypyridin-3-yl)ethyl)piperidine-1-carboxylate]
0.794 | COc1ccc([C@H](CC2CCN(C(=O)OC(C)(C)C)CC2)NC(=O)c2ccc(Cl)s2)cn1 [Example 16, tert-butyl (S)-4-(2-(5-chlorothiophene-2-carboxamido)-2-(6-methoxypyridin-3-yl)ethyl)piperidine-1-carboxylate]
7.94 | COc1ccc([C@H](CC2CCN(C(=O)OC(C)(C)C)CC2)NC(=O)c2ccc(F)cc2)cn1 [Example 17, tert-butyl (S)-4-(2-(4-fluorobenzamido)-2-(6-methoxypyridin-3-yl)ethyl)piperidine-1-carboxylate]
3.98 | COc1ccc([C@H](CC2CCN(C(=O)OC(C)(C)C)CC2)NC(=O)c2ccc(Cl)cc2)cn1 [Example 19, tert-butyl (S)-4-(2-(4-chlorobenzamido)-2-(6-methoxypyridin-3-yl)ethyl)piperidine-1-carboxylate]
2 | COc1ccc([C@H](CC2CCN(C(=O)OC(C)(C)C)CC2)NC(=O)c2ccc(C)s2)cn1 [Example 20, tert-butyl(S)-4-(2-(6-methoxypyridin-3-yl)-2-(5-methylthiophene-2-carboxamido)ethyl)piperidine-1-carboxylate]
1.58 | COc1ccc([C@H](CC2CCN(C(=O)OC(C)C)CC2)NC(=O)c2ccc(Cl)s2)cn1 [Example 21, isopropyl (S)-4-(2-(5-chlorothiophene-2-carboxamido)-2-(6-methoxypyridin-3-yl)ethyl)piperidine-1-carboxylate]
3.98 | COc1ccc([C@H](CC2CCN(C(=O)OC(C)(C)C)CC2)NC(=O)c2ccc(Br)cc2)cn1 [Example 23, tert-butyl (S)-4-(2-(4-bromobenzamido)-2-(6-methoxypyridin-3-yl)ethyl)piperidine-1-carboxylate]
3.16 | CCc1ccc(C(=O)N[C@@H](CC2CCN(C(=O)OC(C)(C)C)CC2)c2ccc(OC)nc2)s1 [Example 24, tert-butyl (S)-4-(2-(5-ethylthiophene-2-carboxamido)-2-(6-methoxypyridin-3-yl)ethyl)piperidine-1-carboxylate]
3.16 | COc1ccc([C@H](CC2CCN(C(=O)OC(C)(C)C)CC2)NC(=O)c2ccc(F)s2)cn1 [Example 25, tert-butyl (S)-4-(2-(5-fluorothiophene-2-carboxamido)-2-(6-methoxypyridin-3-yl)ethyl)piperidine-1-carboxylate]
